PubChem BioAssay (NCI)
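The compound was tested at five concentrations on cells cultured in 96-well plates, with a 48-hour exposure period. At the TGI there is no net growth.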

Legend:
Assay in all cases: growth of human tumour cells (NCI), 48 h
OVCAR-3 ovarian = system: OVCAR-3 ovarian
NCI-H460 lung = system: NCI-H460 lung
NCI-H226 lung = system: NCI-H226 lung
OVCAR-5 ovarian = system: OVCAR-5 ovarian
HOP-62 NSCLC = system: HOP-62 NSCLC
T-47D breast = system: T-47D breast
SN12C renal = system: SN12C renal
ACHN renal = system: ACHN renal
A549 NSCLC = system: A549 NSCLC
OVCAR-8 ovarian = system: OVCAR-8 ovarian
TK-10 renal = system: TK-10 renal
SK-MEL-28 melanoma = system: SK-MEL-28 melanoma
NCI-H23 lung = system: NCI-H23 lung
RXF 393 renal = system: RXF 393 renal
SNB-19 CNS = system: SNB-19 CNS
HL-60(TB) leukemia = system: HL-60(TB) leukemia
NCI-H522 lung = system: NCI-H522 lung
HT29 colon = system: HT29 colon
HOP-92 NSCLC = system: HOP-92 NSCLC
SNB-75 CNS = system: SNB-75 CNS
DU-145 prostate = system: DU-145 prostate
BT-549 breast = system: BT-549 breast
SK-OV-3 ovarian = system: SK-OV-3 ovarian
SR leukemia = system: SR leukemia
COLO 205 colon = system: COLO 205 colon
HCT-15 colon = system: HCT-15 colon
UACC-257 melanoma = system: UACC-257 melanoma
NCI/ADR-RES ovarian = system: NCI/ADR-RES ovarian
MDA-MB-435 = system: MDA-MB-435
PC-3 prostate = system: PC-3 prostate
EKVX NSCLC = system: EKVX NSCLC
SK-MEL-5 melanoma = system: SK-MEL-5 melanoma
SF-539 CNS = system: SF-539 CNS
SF-268 CNS = system: SF-268 CNS
CAKI-1 renal = system: CAKI-1 renal
RPMI-8226 leukemia = system: RPMI-8226 leukemia
SF-295 CNS = system: SF-295 CNS
MOLT-4 leukemia = system: MOLT-4 leukemia
HCC-2998 colon = system: HCC-2998 colon
UACC-62 melanoma = system: UACC-62 melanoma
MDA-MB-231 breast = system: MDA-MB-231 breast
UO-31 renal = system: UO-31 renal
KM12 colon = system: KM12 colon
MCF7 breast = system: MCF7 breast
IGROV1 ovarian = system: IGROV1 ovarian
CCRF-CEM leukemia = system: CCRF-CEM leukemia
U251 CNS = system: U251 CNS
A498 renal = system: A498 renal
786-0 renal = system: 786-0 renal
LOX IMVI melanoma = system: LOX IMVI melanoma
SK-MEL-2 melanoma = system: SK-MEL-2 melanoma
M14 melanoma = system: M14 melanoma
SW-620 colon = system: SW-620 colon
K-562 leukemia = system: K-562 leukemia
MDA-N = system: MDA-N
HCT-116 colon = system: HCT-116 colon
HS 578T breast = system: HS 578T breast
MALME-3M melanoma = system: MALME-3M melanoma
OVCAR-4 ovarian = system: OVCAR-4 ovarian

## c1ccc2c3[nH]c(c2c1)=Nc1ccc(cc1)-c1nc2ccc(cc2o1)N=c1[nH]c(c2ccccc12)=Nc1ccc2nc(oc2c1)-c1ccc(cc1)N=3
OVCAR-3 ovarian
  TGI: > 100 µM
NCI-H460 lung
  TGI: 20.5 µM
NCI-H226 lung
  TGI: > 100 µM
OVCAR-5 ovarian
  TGI: > 100 µM
HOP-62 NSCLC
  TGI: > 100 µM
T-47D breast
  TGI: > 100 µM
SN12C renal
  TGI: > 100 µM
ACHN renal
  TGI: 35.5 µM
A549 NSCLC
  TGI: > 100 µM
OVCAR-8 ovarian
  TGI: > 100 µM
TK-10 renal
  TGI: > 100 µM
SK-MEL-28 melanoma
  TGI: > 100 µM
NCI-H23 lung
  TGI: > 100 µM
RXF 393 renal
  TGI: > 100 µM
SNB-19 CNS
  TGI: 81 µM
HL-60(TB) leukemia
  TGI: 12.4 µM
NCI-H522 lung
  TGI: > 100 µM
HT29 colon
  TGI: > 100 µM
HOP-92 NSCLC
  TGI: > 100 µM
SNB-75 CNS
  TGI: > 100 µM
DU-145 prostate
  TGI: > 100 µM
BT-549 breast
  TGI: > 100 µM
SK-OV-3 ovarian
  TGI: > 100 µM
SR leukemia
  TGI: 71.6 µM
COLO 205 colon
  TGI: 67.8 µM
HCT-15 colon
  TGI: 25.3 µM
UACC-257 melanoma
  TGI: > 100 µM
NCI/ADR-RES ovarian
  TGI: > 100 µM
MDA-MB-435
  TGI: > 100 µM
PC-3 prostate
  TGI: > 100 µM
EKVX NSCLC
  TGI: > 100 µM
SK-MEL-5 melanoma
  TGI: 29.4 µM
SF-539 CNS
  TGI: > 100 µM
SF-268 CNS
  TGI: > 100 µM
CAKI-1 renal
  TGI: > 100 µM
RPMI-8226 leukemia
  TGI: 86.2 µM
SF-295 CNS
  TGI: > 100 µM
MOLT-4 leukemia
  TGI: > 100 µM
HCC-2998 colon
  TGI: 42.7 µM
UACC-62 melanoma
  TGI: > 100 µM
MDA-MB-231 breast
  TGI: > 100 µM
UO-31 renal
  TGI: 45.5 µM
KM12 colon
  TGI: > 100 µM
MCF7 breast
  TGI: > 100 µM
IGROV1 ovarian
  TGI: > 100 µM
CCRF-CEM leukemia
  TGI: 26.7 µM
U251 CNS
  TGI: 88.3 µM
A498 renal
  TGI: > 100 µM
786-0 renal
  TGI: > 100 µM
LOX IMVI melanoma
  TGI: > 100 µM
SK-MEL-2 melanoma
  TGI: > 100 µM
M14 melanoma
  TGI: > 100 µM
SW-620 colon
  TGI: > 100 µM
K-562 leukemia
  TGI: 51.5 µM
MDA-N
  TGI: > 100 µM
HCT-116 colon
  TGI: > 100 µM
HS 578T breast
  TGI: > 100 µM

## Cc1ccc2occ/c(=N\Nc3ccccc3)c2c1
OVCAR-3 ovarian
  TGI: > 100 µM
NCI-H460 lung
  TGI: > 100 µM
NCI-H226 lung
  TGI: > 100 µM
OVCAR-5 ovarian
  TGI: > 100 µM
HOP-62 NSCLC
  TGI: > 100 µM
T-47D breast
  TGI: 30.5 µM
SN12C renal
  TGI: > 100 µM
ACHN renal
  TGI: > 100 µM
A549 NSCLC
  TGI: > 100 µM
OVCAR-8 ovarian
  TGI: > 100 µM
TK-10 renal
  TGI: > 100 µM
SK-MEL-28 melanoma
  TGI: > 100 µM
NCI-H23 lung
  TGI: > 100 µM
RXF 393 renal
  TGI: 58.9 µM
SNB-19 CNS
  TGI: > 100 µM
MALME-3M melanoma
  TGI: > 100 µM
HL-60(TB) leukemia
  TGI: > 100 µM
NCI-H522 lung
  TGI: > 100 µM
HT29 colon
  TGI: > 100 µM
HOP-92 NSCLC
  TGI: 97.4 µM
SNB-75 CNS
  TGI: 63.2 µM
DU-145 prostate
  TGI: > 100 µM
BT-549 breast
  TGI: > 100 µM
SK-OV-3 ovarian
  TGI: > 100 µM
SR leukemia
  TGI: > 100 µM
COLO 205 colon
  TGI: > 100 µM
HCT-15 colon
  TGI: > 100 µM
UACC-257 melanoma
  TGI: > 100 µM
NCI/ADR-RES ovarian
  TGI: > 100 µM
MDA-MB-435
  TGI: > 100 µM
PC-3 prostate
  TGI: > 100 µM
EKVX NSCLC
  TGI: 98 µM
SK-MEL-5 melanoma
  TGI: > 100 µM
SF-539 CNS
  TGI: > 100 µM
SF-268 CNS
  TGI: > 100 µM
CAKI-1 renal
  TGI: > 100 µM
OVCAR-4 ovarian
  TGI: > 100 µM
RPMI-8226 leukemia
  TGI: > 100 µM
SF-295 CNS
  TGI: > 100 µM
HCC-2998 colon
  TGI: > 100 µM
UACC-62 melanoma
  TGI: > 100 µM
MDA-MB-231 breast
  TGI: > 100 µM
UO-31 renal
  TGI: > 100 µM
KM12 colon
  TGI: 78.5 µM
MCF7 breast
  TGI: > 100 µM
IGROV1 ovarian
  TGI: > 100 µM
CCRF-CEM leukemia
  TGI: > 100 µM
U251 CNS
  TGI: > 100 µM
A498 renal
  TGI: > 100 µM
786-0 renal
  TGI: > 100 µM
LOX IMVI melanoma
  TGI: > 100 µM
SK-MEL-2 melanoma
  TGI: > 100 µM
M14 melanoma
  TGI: > 100 µM
SW-620 colon
  TGI: > 100 µM
K-562 leukemia
  TGI: > 100 µM
MDA-N
  TGI: > 100 µM
HCT-116 colon
  TGI: > 100 µM
HS 578T breast
  TGI: > 100 µM
